As usually defined, the IC50 is the concentration needed to halve the response being measured. Low values mean greater potency, high ones weaker potency.

Data on 23 compounds can be found in patent US11020398B2, “Amino-pyrrolopyrimidinone compounds and methods of use thereof” (ArQule, Inc., priority 2016, dated 2021).

The target of test [1] is full-length activated BTK (wildtype) (Homo sapiens (Human), UniProt Q06187). The experiment in a line: AlphaScreen assay, wild-type BTK. Particulars: for inhibition at 10 µM: read-out: BTK % @ 10 uM, @ 10 uM. It is filed as biochemical. In general terms: Bead proximity is the source of the signal in Alpha formats.
Test [2] has as its target full-length activated BTK mutant C481S (Homo sapiens (Human), UniProt Q06187, C481S). Put plainly: AlphaScreen assay, BTK mutant C481S. It is filed as biochemical. Particulars: for inhibition at 10 µM: read-out: BTK-C481S % @ 10 uM, @ 10 uM.

Sequence of full-length activated BTK mutant C481S (Q06187 whole entry C481S): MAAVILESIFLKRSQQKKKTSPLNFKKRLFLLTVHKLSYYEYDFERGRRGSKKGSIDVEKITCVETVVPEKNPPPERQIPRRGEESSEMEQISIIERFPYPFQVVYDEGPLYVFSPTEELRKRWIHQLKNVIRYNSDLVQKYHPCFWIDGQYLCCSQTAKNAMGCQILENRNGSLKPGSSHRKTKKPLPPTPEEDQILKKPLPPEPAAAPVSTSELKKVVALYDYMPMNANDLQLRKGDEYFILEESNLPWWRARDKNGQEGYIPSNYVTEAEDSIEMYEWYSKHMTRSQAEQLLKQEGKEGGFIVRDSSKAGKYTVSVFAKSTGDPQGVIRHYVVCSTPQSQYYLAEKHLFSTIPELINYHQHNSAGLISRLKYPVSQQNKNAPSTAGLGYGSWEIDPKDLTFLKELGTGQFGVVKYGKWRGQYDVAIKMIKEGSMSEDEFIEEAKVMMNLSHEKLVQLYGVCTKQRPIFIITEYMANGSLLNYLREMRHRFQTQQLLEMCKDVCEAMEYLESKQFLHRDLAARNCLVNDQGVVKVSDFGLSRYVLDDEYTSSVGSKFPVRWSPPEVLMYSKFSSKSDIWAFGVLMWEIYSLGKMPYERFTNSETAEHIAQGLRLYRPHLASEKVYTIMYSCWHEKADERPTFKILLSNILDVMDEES
Sequence of full-length activated BTK (wildtype) (Q06187 whole entry): as the sequence (Q06187 whole entry C481S) above, with S481C counted along it

For `O=C(Nc1ccccc1)c1ccc(Cl)c(C(=O)c2c[nH]c3ncnc(N[C@@H]4CC[C@@H](CO)OC4)c23)c1` [Compound I-631, 4-chloro-3-(4-(((3R,6S)-6-(hydroxymethyl)tetrahydro-2H-pyran-3-yl)amino)-7H-pyrrolo[2,3-d]pyrimidine-5-carbonyl)-N-phenylbenzamide], the figures for the IC50 in test [1] and in test [2] were 52.1 nM and 177 nM, respectively.

Regarding `Cn1cc(NC(=O)c2ccc(C(=O)c3c[nH]c4ncnc(N[C@@H]5CC[C@@H](CO)OC5)c34)c(Cl)c2)cn1` [Compound I-619, 3-chloro-4-(4-(((3R,6S)-6-(hydroxymethyl)tetrahydro-2H-pyran-3-yl)amino)-7H-pyrrolo[2,3-d]pyrimidine-5-carbonyl)-N-(1-methyl-1H-pyrazol-4-yl)benzamide], the half-maximal inhibitory concentration (IC50) in test [1] is 376 nM; in test [2], 942 nM.

Consider `C=CS(=O)(=O)N1CCCC(Nc2ncnc3[nH]cc(C(=O)c4ccc(Oc5ccccc5)cc4Cl)c23)C1` (racemic) [Compound I-322r, (racemic)-(2-chloro-4-phenoxyphenyl)(4-((1-(vinylsulfonyl)piperidin-3-yl)amino)-7H-pyrrolo[2,3-d]pyrimidin-5-yl)methanone], for which the results for the IC50 in test [1] and in test [2] were 10.4 nM and 98.6 nM, respectively.

Take `O=C(NCc1ccccc1)c1ccc(C(=O)c2c[nH]c3ncnc(N[C@@H]4CC[C@@H](CO)OC4)c23)c(Cl)c1` [Compound I-618, N-benzyl-3-chloro-4-(4-(((3R,6S)-6-(hydroxymethyl)tetrahydro-2H-pyran-3-yl)amino)-7H-pyrrolo[2,3-d]pyrimidine-5-carbonyl)benzamide]: the results for the IC50 in test [1] and in test [2] were 87.4 nM and 399 nM, respectively.

Regarding `O=C(c1cc(NC(=O)C2CCOCC2)ccc1Cl)c1c[nH]c2ncnc(N[C@@H]3CC[C@@H](CO)OC3)c12` [Compound I-603, N-(4-chloro-3-(4-(((3R,6S)-6-(hydroxymethyl)tetrahydro-2H-pyran-3-yl)amino)-7H-pyrrolo[2,3-d]pyrimidine-5-carbonyl)phenyl)tetrahydro-2H-pyran-4-carboxamide], the figures for the IC50 in test [1] and in test [2] were 466 nM and 1770 nM, respectively.

Consider `O=C(NCCN1CCOCC1)c1ccc(Cl)c(C(=O)c2c[nH]c3ncnc(N[C@@H]4CC[C@@H](CO)OC4)c23)c1` [Compound I-626, 4-chloro-3-(4-(((3R,6S)-6-(hydroxymethyl)tetrahydro-2H-pyran-3-yl)amino)-7H-pyrrolo[2,3-d]pyrimidine-5-carbonyl)-N-(2-morpholinoethyl) benzamide], for which the IC50 in test [1] was found to be 164 nM; in test [2] it was 757 nM.

On to `N#Cc1cccc(NC(=O)c2ccc(Cl)c(C(=O)c3c[nH]c4ncnc(N[C@@H]5CC[C@@H](CO)OC5)c34)c2)c1` [Compound I-630, 4-chloro-N-(3-cyanophenyl)-3-(4-(((3R,6S)-6-(hydroxymethyl)tetrahydro-2H-pyran-3-yl)amino)-7H-pyrrolo[2,3-d]pyrimidine-5-carbonyl)benzamide], for which the figures for the 50% inhibitory concentration (IC50) in test [1] and in test [2] were 18.4 nM and 189 nM, respectively.

Consider `O=C(c1ccc(Oc2ccccc2)cc1Cl)c1c[nH]c2ncnc(NC[C@H]3CCC[C@@H](CO)N3)c12` (racemic) [Compound I-359e, racemic-cis-(2-chloro-4-phenoxyphenyl)(4-(((6-(hydroxymethyl)piperidin-2-yl)methyl)amino)-7H-pyrrolo[2,3-d]pyrimidin-5-yl)methanone], for which the IC50 in test [1] is 29.4 nM; in test [2], 124 nM.

Turning to `O=C(c1cc(C(=O)N2CCN(c3ccccn3)CC2)ccc1Cl)c1c[nH]c2ncnc(N[C@@H]3CC[C@@H](CO)OC3)c12` [Compound I-627, (4-chloro-3-(4-(((3R,6S)-6-(hydroxymethyl)tetrahydro-2H-pyran-3-yl)amino)-7H-pyrrolo[2,3-d]pyrimidine-5-carbonyl)phenyl)(4-(pyridin-2-yl)piperazin-1-yl)methanone], the concentration for half-maximal inhibition (IC50) in test [1] is 777 nM; in test [2], 664 nM.

With `COCCNC(=O)c1ccc(C(=O)c2c[nH]c3ncnc(N[C@@H]4CC[C@@H](CO)OC4)c23)c(Cl)c1` [Compound I-610, 3-chloro-4-(4-(((3R,6S)-6-(hydroxymethyl)tetrahydro-2H-pyran-3-yl)amino)-7H-pyrrolo[2,3-d]pyrimidine-5-carbonyl)-N-(2-methoxyethyl) benzamide], the IC50 in test [1] was found to be 491 nM; in test [2], 1150 nM.

`COCC(=O)Nc1cccc(C(=O)c2c[nH]c3ncnc(N[C@@H]4CC[C@@H](CO)OC4)c23)c1` [Compound I-645, N-(3-(4-(((3R,6S)-6-(hydroxymethyl)tetrahydro-2H-pyran-3-yl)amino)-7H-pyrrolo[2,3-d]pyrimidine-5-carbonyl)phenyl)-2-methoxyacetamide] showed an IC50 in test [1] of 743 nM. In addition, the inhibition at 10 µM in test [2] is 81%.

For the compound `O=C(c1cccc(C(=O)N2CCOCC2)c1)c1c[nH]c2ncnc(N[C@@H]3CC[C@@H](CO)OC3)c12` [Compound I-635, (4-(((3R,6S)-6-(hydroxymethyl)tetrahydro-2H-pyran-3-yl)amino)-7H-pyrrolo[2,3-d]pyrimidin-5-yl)(3-(morpholine-4-carbonyl)phenyl) methanone], the inhibition at 10 µM in test [1] came out at 73%; in test [2], 49%.

In the case of `O=C(c1cc(C(=O)N2CCc3ccccc3C2)ccc1Cl)c1c[nH]c2ncnc(N[C@@H]3CC[C@@H](CO)OC3)c12` [Compound I-625, (4-chloro-3-(4-(((3R,6S)-6-(hydroxymethyl)tetrahydro-2H-pyran-3-yl)amino)-7H-pyrrolo[2,3-d]pyrimidine-5-carbonyl)phenyl)(3,4-dihydroisoquinolin-2(1H)-yl)methanone], the results for the 50% inhibitory concentration (IC50) in test [1] and in test [2] were 110 nM and 170 nM, respectively.

For the compound `COCCOc1ccc(C(=O)c2c[nH]c3ncnc(N[C@@H]4CC[C@@H](CO)OC4)c23)cc1` [Compound I-318i, (4-(((3R,6S)-6-(hydroxymethyl)tetrahydro-2H-pyran-3-yl)amino)-7H-pyrrolo[2,3-d]pyrimidin-5-yl)(4-(2-methoxyethoxy)phenyl)methanone], the results for the IC50 in test [1] and in test [2] were 423 nM and 714 nM, respectively.

In the case of `C=CC(=O)N1CCCC1CNc1ncnc2[nH]cc(C(=O)c3ccc(Oc4ccccc4)cc3Cl)c12` (racemic) [Compound I-325r, (racemic)-1-(2-(((5-(2-chloro-4-phenoxybenzoyl)-7H-pyrrolo[2,3-d]pyrimidin-4-yl)amino)methyl)pyrrolidin-1-yl)prop-2-en-1-one], the 50% inhibitory concentration (IC50) in test [1] came out at 0.98 nM; in test [2], 136 nM.

`O=C(NC1CC2(COC2)C1)c1ccc(C(=O)c2c[nH]c3ncnc(N[C@@H]4CC[C@@H](CO)OC4)c23)c(Cl)c1` [Compound I-621, 3-chloro-4-(4-(((3R,6S)-6-(hydroxymethyl)tetrahydro-2H-pyran-3-yl)amino)-7H-pyrrolo[2,3-d]pyrimidine-5-carbonyl)-N-(2-oxaspiro[3.3]heptan-6-yl)benzamide] gave an IC50 in test [1] of 571 nM. Moreover, the inhibition at 10 µM in test [2] stood at 85%.

As to `O=C(COCc1ccccc1)Nc1ccc(C(=O)c2c[nH]c3ncnc(N[C@@H]4CC[C@@H](CO)OC4)c23)c(Cl)c1` [Compound I-641, 2-(benzyloxy)-N-(3-chloro-4-(4-(((3R,6S)-6-(hydroxymethyl)tetrahydro-2H-pyran-3-yl)amino)-7H-pyrrolo[2,3-d]pyrimidine-5-carbonyl)phenyl) acetamide], the IC50 in test [1] came to 8.28 nM; in test [2] it was 32.6 nM.

Regarding `CC#CC(=O)N1CCCC1CNc1ncnc2[nH]cc(C(=O)c3ccc(Oc4ccccc4)cc3Cl)c12` (racemic) [Compound I-328r, (racemic)-1-(2-(((5-(2-chloro-4-phenoxybenzoyl)-7H-pyrrolo[2,3-d]pyrimidin-4-yl)amino)methyl)pyrrolidin-1-yl)but-2-yn-1-one], the IC50 in test [1] came to 0.98 nM; in test [2] it was 18.4 nM.

Regarding `Cn1cc(NC(=O)c2ccc(C(=O)c3c[nH]c4ncnc(N[C@@H]5CC[C@@H](CO)OC5)c34)cc2)cn1` [Compound I-633, 4-(4-(((3R,6S)-6-(hydroxymethyl)tetrahydro-2H-pyran-3-yl)amino)-7H-pyrrolo[2,3-d]pyrimidine-5-carbonyl)-N-(1-methyl-1H-pyrazol-4-yl)benzamide], the inhibition at 10 µM was found to be 77% in test [1] and 50% in test [2].

In the case of `Cn1cc(NC(=O)c2cccc(C(=O)c3c[nH]c4ncnc(N[C@@H]5CC[C@@H](CO)OC5)c34)c2)cn1` [Compound I-638, 3-(4-(((3R,6S)-6-(hydroxymethyl)tetrahydro-2H-pyran-3-yl)amino)-7H-pyrrolo[2,3-d]pyrimidine-5-carbonyl)-N-(1-methyl-1H-pyrazol-4-yl)benzamide], the inhibition at 10 µM amounted to 63% in test [1] and 54% in test [2].

`O=C(Nc1ccccc1)c1ccc(C(=O)c2c[nH]c3ncnc(N[C@@H]4CC[C@@H](CO)OC4)c23)c(Cl)c1` [Compound I-236, 3-chloro-4-(4-(((3R,6S)-6-(hydroxymethyl)tetrahydro-2H-pyran-3-yl)amino)-7H-pyrrolo[2,3-d]pyrimidine-5-carbonyl)-N-phenylbenzamide]: the 50% inhibitory concentration (IC50) in test [1] was determined as 181 nM; in test [2] it was 98.4 nM.

On to `O=C(c1ccc(C(=O)N2CCOCC2)cc1Cl)c1c[nH]c2ncnc(N[C@@H]3CC[C@@H](CO)OC3)c12` [Compound I-611, (3-chloro-4-(4-(((3R,6S)-6-(hydroxymethyl)tetrahydro-2H-pyran-3-yl)amino)-7H-pyrrolo[2,3-d]pyrimidine-5-carbonyl)phenyl)(morpholino) methanone], for which the figures for the IC50 in test [1] and in test [2] were 1140 nM and 1510 nM, respectively.

In the case of `O=C(Nc1ccccc1)c1ccc(C(=O)c2c[nH]c3ncnc(N[C@@H]4CC[C@@H](CO)OC4)c23)cc1` [Compound I-231, 4-(4-(((3R,6S)-6-(hydroxymethyl)tetrahydro-2H-pyran-3-yl)amino)-7H-pyrrolo[2,3-d]pyrimidine-5-carbonyl)-N-phenylbenzamide], the values for the IC50 in test [1] and in test [2] were 318 nM and 248 nM, respectively.
